Earlier results as cited in patent US7825150B2, “Compositions and methods for treating immunological and inflammatory diseases and disorders” (Lexicon Pharmaceuticals, Inc., priority 2007, dated 2010).
Like-named read-outs stand apart in the source and are kept apart here.

Key:
[1] = humans
lymphocytes [2] = conditions: administration to rats
S1P lyase = target: T1, S1P lyase (Mus musculus, UniProt Q8R0X7); conditions: administered to mice; Schwab et al. 2005
T1 construct: host or cells: mice, in vivo (endogenous enzyme)
T1 sequence (Q8R0X7 1-568): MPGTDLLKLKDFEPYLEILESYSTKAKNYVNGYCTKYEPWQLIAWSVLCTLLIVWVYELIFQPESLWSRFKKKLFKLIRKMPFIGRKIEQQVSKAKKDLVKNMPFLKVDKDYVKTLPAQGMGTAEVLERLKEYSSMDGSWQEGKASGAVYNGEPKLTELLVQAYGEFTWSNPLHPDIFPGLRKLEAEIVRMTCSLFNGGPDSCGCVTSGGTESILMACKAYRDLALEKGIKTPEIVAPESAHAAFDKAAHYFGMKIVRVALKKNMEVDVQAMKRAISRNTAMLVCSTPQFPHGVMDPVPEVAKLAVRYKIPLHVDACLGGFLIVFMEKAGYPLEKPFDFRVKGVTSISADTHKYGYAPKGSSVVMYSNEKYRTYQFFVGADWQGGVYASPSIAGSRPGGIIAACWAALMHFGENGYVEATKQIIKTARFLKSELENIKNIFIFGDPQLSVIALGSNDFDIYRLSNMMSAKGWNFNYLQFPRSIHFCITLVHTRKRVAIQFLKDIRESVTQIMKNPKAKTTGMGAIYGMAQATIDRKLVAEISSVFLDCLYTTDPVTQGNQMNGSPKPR

lymphocytes [3] = conditions: administration to mice
[4] = system: adjuvant-induced arthritis (AA) model; conditions: therapeutic setting, established disease state; majority of published studies

Row | Compound | immunological effects [1] | accumulation of mature T cells in the thymus (lymphocytes [2]) | lymphopenia (lymphocytes [2]) | S1P lyase activity (S1P lyase) | accumulation of mature T cells in the thymus (lymphocytes [3]) | lymphopenia (lymphocytes [3]) | effectiveness of MTX treatment alone in this model [4]
1 | CC(=O)c1nc(C(O)C(O)C(O)CO)c[nH]1 (stereo not shown) [THI, 2-acetyl-4-tetrahydroxybutylimidazole] | no immunological effects | causes the accumulation of mature T cells in the thymus | induces lymphopenia | inhibits S1P lyase activity | causes the accumulation of mature T cells in the thymus | induces lymphopenia | 
2 | CN(Cc1cnc2nc(N)nc(N)c2n1)c1ccc(C(=O)N[C@@H](CCC(=O)O)C(=O)O)cc1 [MTX, methotrexate] |  |  |  |  |  |  | not effective
